From patent US11331314B2, “Amine substituted triazole derivatives and uses thereof” (Bayer Pharma Aktiengesellschaft, priority 2017, dated 2022)

Assays:
human V2 receptor = molecular target: T1, human V2 receptor (Homo sapiens, UniProt P30518); experiment: Cellular in vitro assay for determining vasopressin receptor activity, V2 receptor cell line (CRE-luciferase); assay type: cell-based; details: CHO cell line transfected with the human V2 receptor; agonist [Arg8]-vasopressin at EC50 concentration; read-out: IC50 hV2
T1 construct: expressed in transfected cells; host or cells: CHO K1 (ATCC) expressing firefly luciferase under a CRE-responsive promoter
T1 sequence (P30518 whole entry): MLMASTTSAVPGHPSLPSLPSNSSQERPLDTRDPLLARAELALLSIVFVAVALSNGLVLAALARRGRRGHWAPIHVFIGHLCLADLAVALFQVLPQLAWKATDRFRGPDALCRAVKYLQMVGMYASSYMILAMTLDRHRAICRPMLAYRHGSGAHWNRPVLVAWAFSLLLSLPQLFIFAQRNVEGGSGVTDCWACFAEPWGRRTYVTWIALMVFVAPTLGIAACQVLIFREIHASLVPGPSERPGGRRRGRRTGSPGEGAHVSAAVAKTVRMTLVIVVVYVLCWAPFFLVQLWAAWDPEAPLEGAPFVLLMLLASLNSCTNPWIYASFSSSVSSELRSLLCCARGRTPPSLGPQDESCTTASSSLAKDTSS
Procedure: (§1) B-1. Cellular In Vitro Assay for Determining Vasopressin Receptor Activity
(§2) The identification of agonists and antagonists of the V1a and V2 vasopressin receptors from humans, rats and dogs as well as the quantification of the activity of the compounds of the invention is carried out using recombinant cell lines. These cell lines originally derive from a hamster's ovary epithelial cell (Chinese Hamster Ovary, CHO K1, ATCC: American Type Culture Collection, Manassas, Va. 20108, USA). The test cell lines constitutively express the human, rat or dog V1a or V2 receptors. In case of the Gαq-coupled V1a receptors, cells are also stably transfected with a modified form of the calcium-sensitive photoproteins aequorin (human and rat V1a) or obelin (dog V1a), which, after reconstitution with the cofactor coelenterazine, emit light when there are increases in free calcium concentrations [Rizzuto R, Simpson A W, Brini M, Pozzan T, Nature 358, 325-327 (1992); Illarionov B A, Bondar V S, Illarionova V A, Vysotski E S, Gene 153 (2), 273-274 (1995)]. The resulting vasopressin receptor cells react to stimulation of the recombinantly expressed V1a receptors by intracellular release of calcium ions, which can be quantified by the resulting photoprotein luminescence. The Gs-coupled V2 receptors are stably transfected into cell lines expressing the gene for firefly luciferase under control of a CRE-responsible promoter. Activation of V2 receptors induces the activation of the CRE-responsive promoter via cAMP increase, thereby inducing the expression of firefly luciferase. The light emitted by photoproteins of V1a cell lines as well as the light emitted by firefly luciferase of V2 cell lines corresponds to the activation or inhibition of the respective vasopressin receptor. The bioluminescence of the cell lines is detected using a suitable luminometer [Milligan G, Marshall F, Rees S, Trends in Pharmacological Sciences 17, 235-237 (1996)].
Vasopressin V2 Receptor Cell Lines:
On the day before the assay, the cells are plated out in culture medium (DMEM/F12, 2% FCS, 2 mM glutamine, 10 mM HEPES) in 384-well microtiter plates and kept in a cell incubator (96% humidity, 5% v/v CO2, 37° C.). On the day of the assay, test compounds in various concentrations and the agonist [Arg^8]-vasopressin at EC50 concentration are added together to the wells, and plates are incubated for 3 hours in a cell incubator. Upon addition of the cell lysis reagent Triton™ and the substrate luciferin, luminescence of firefly luciferase is measured in a luminometer.
(§3) Table 1A below lists individual IC50 values for the compounds of the invention (including racemic mixtures as well as separated enantiomers) that were obtained from cell lines transfected with the human V1a or V2 receptor: […]

human V1a receptor = human V1a receptor (Homo sapiens, UniProt P37288); experiment: Cellular in vitro assay for determining vasopressin receptor activity, V1a receptor cell line (photoprotein luminescence); assay type: cell-based; details: for IC50: CHO cell line transfected with the human V1a receptor, agonist [Arg8]-vasopressin at EC50 concentration, read-out: IC50 hV1a; for ratio IC50 hV2/hV1a: selectivity ratio of the cellular IC50 values
human V1a receptor, sequence (P37288 whole entry): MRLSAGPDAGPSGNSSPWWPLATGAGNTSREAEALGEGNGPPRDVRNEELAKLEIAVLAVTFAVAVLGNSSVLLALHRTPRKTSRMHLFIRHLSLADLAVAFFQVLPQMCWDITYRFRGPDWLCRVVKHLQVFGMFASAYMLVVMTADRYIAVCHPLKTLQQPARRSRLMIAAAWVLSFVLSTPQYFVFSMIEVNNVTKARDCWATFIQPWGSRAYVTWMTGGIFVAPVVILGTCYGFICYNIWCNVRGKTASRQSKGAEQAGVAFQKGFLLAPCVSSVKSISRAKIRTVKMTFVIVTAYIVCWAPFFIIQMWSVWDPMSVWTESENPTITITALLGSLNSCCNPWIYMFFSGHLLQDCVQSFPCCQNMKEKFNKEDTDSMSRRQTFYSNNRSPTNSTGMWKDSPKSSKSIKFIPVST
Procedure: as §1, §2
Vasopressin V1a Receptor Cell Lines:
On the day before the assay, the cells are plated out in culture medium (DMEM/F12, 2% FCS, 2 mM glutamine, 10 mM HEPES, 5 μg/ml coelenterazine) in 384-well microtiter plates and kept in a cell incubator (96% humidity, 5% v/v CO2, 37° C.). On the day of the assay, test compounds in various concentrations are placed for 10 minutes in the wells of the microtiter plate before the agonist [Arg^8]-vasopressin at EC50 concentration is added. The resulting light signal is measured immediately in a luminometer.
as §3

`NC(CNc1nc(Cn2nc(-c3ccc(Cl)cc3)n(C[C@H](O)C(F)(F)F)c2=O)nn1-c1ccccc1Cl)C(F)(F)F` (mixture of isomers) [Example 6, 2-{[5-{[2-Amino-3,3,3-trifluoropropyl]amino}-1-(2-chlorophenyl)-1H-1,2,4-triazol-3-yl]methyl}-5-(4-chlorophenyl)-4-[(2S)-3,3,3-trifluoro-2-hydroxypropyl]-2,4-dihydro-3H-1,2,4-triazol-3-one] was tested, and the IC50 (human V2 receptor) was 3.45 nM, the IC50 (human V1a receptor) was 0.39 nM and the “ratio IC50 hV2/hV1a” value (human V1a receptor) was 8.9.
For `NCC(O)CNc1nc(Cn2nc(-c3ccc(Cl)cc3)n(C[C@H](O)C(F)(F)F)c2=O)nn1-c1ccccc1Cl` (mixture of isomers) [Example 11, 2-{[5-{[3-Amino-2-hydroxypropyl]amino}-1-(2-chlorophenyl)-1H-1,2,4-triazol-3-yl]methyl}-5-(4-chlorophenyl)-4-[(2S)-3,3,3-trifluoro-2-hydroxypropyl]-2,4-dihydro-3H-1,2,4-triazol-3-one], the IC50 (human V2 receptor) was 4.65 nM, the IC50 (human V1a receptor) was 0.93 nM and the “ratio IC50 hV2/hV1a” value (human V1a receptor) was 5.0.
For `O=C1NCC(CNc2nc(Cn3nc(-c4ccc(Cl)cc4)n(C[C@H](O)C(F)(F)F)c3=O)nn2-c2ccccc2Cl)O1` (mixture of isomers) [Example 12, 5-(4-Chlorophenyl)-2-{[1-(2-chlorophenyl)-5-({[2-oxo-1,3-oxazolidin-5-yl]methyl}amino)-1H-1,2,4-triazol-3-yl]methyl}-4-[(2S)-3,3,3-trifluoro-2-hydroxypropyl]-2,4-dihydro-3H-1,2,4-triazol-3-one], the IC50 (human V2 receptor) was 2.45 nM, the IC50 (human V1a receptor) was 1.2 nM and the “ratio IC50 hV2/hV1a” value (human V1a receptor) was 2.0.
`O=c1n(Cc2nc(N3CCC(O)(C(F)(F)F)C3)n(-c3ccccc3Cl)n2)nc(-c2ccc(Cl)cc2)n1C[C@H](O)C(F)(F)F` (mixture of isomers) [Example 13, 5-(4-Chlorophenyl)-2-({1-(2-chlorophenyl)-5-[3-hydroxy-3-(trifluoromethyl)pyrrolidin-1-yl]-1H-1,2,4-triazol-3-yl}methyl)-4-[(2S)-3,3,3-trifluoro-2-hydroxypropyl]-2,4-dihydro-3H-1,2,4-triazol-3-one] was tested, and the IC50 (human V2 receptor) was 2.25 nM, the IC50 (human V1a receptor) was 0.35 nM and the “ratio IC50 hV2/hV1a” value (human V1a receptor) was 6.5.
`O=C1NCCC1Nc1nc(Cn2nc(-c3ccc(Cl)cc3)n(C[C@H](O)C(F)(F)F)c2=O)nn1-c1ccccc1Cl` (mixture of isomers) [Example 16, 5-(4-Chlorophenyl)-2-{[1-(2-chlorophenyl)-5-{[2-oxopyrrolidin-3-yl]amino}-1H-1,2,4-triazol-3-yl]methyl}-4-[(2S)-3,3,3-trifluoro-2-hydroxypropyl]-2,4-dihydro-3H-1,2,4-triazol-3-one] was tested, and the IC50 (human V2 receptor) was 0.82 nM, the IC50 (human V1a receptor) was 0.33 nM and the “ratio IC50 hV2/hV1a” value (human V1a receptor) was 2.5.
With `CC(C)(C)OC(=O)N1CCCC(O)(CNc2nc(Cn3nc(-c4ccc(Cl)cc4)n(C[C@H](O)C(F)(F)F)c3=O)nn2-c2ccccc2Cl)CC1` (mixture of isomers) [Example 19, tert-Butyl 4-({[1-(2-chlorophenyl)-3-({3-(4-chlorophenyl)-5-oxo-4-[(2S)-3,3,3-trifluoro-2-hydroxypropyl]-4,5-dihydro-1H-1,2,4-triazol-1-yl}methyl)-1H-1,2,4-triazol-5-yl]amino}methyl)-4-hydroxyazepane-1-carboxylate] the IC50 (human V2 receptor) was 38 nM, the IC50 (human V1a receptor) was 2.55 nM and the “ratio IC50 hV2/hV1a” value (human V1a receptor) was 14.9.
In the case of `O=c1n(Cc2nc(NCC3(O)CCCNCC3)n(-c3ccccc3Cl)n2)nc(-c2ccc(Cl)cc2)n1C[C@H](O)C(F)(F)F` (mixture of isomers) [Example 20], the IC50 (human V2 receptor) is reported as 12 nM, the IC50 (human V1a receptor) is reported as 0.42 nM and the “ratio IC50 hV2/hV1a” value (human V1a receptor) is reported as 28.6.
For `CC(N)(CNc1nc(Cn2nc(-c3ccc(Cl)cc3)n(C[C@H](O)C(F)(F)F)c2=O)nn1-c1ccccc1Cl)C(F)(F)F` (mixture of isomers) [Example 27, 2-{[5-{[2-Amino-3,3,3-trifluoro-2-methylpropyl]amino}-1-(2-chlorophenyl)-1H-1,2,4-triazol-3-yl]methyl}-5-(4-chlorophenyl)-4-[(2S)-3,3,3-trifluoro-2-hydroxypropyl]-2,4-dihydro-3H-1,2,4-triazol-3-one], the IC50 (human V2 receptor) was 1.28 nM, the IC50 (human V1a receptor) was 0.35 nM and the “ratio IC50 hV2/hV1a” value (human V1a receptor) was 3.7.
For `CC1(O)CCN(c2nc(Cn3nc(-c4ccc(Cl)cc4)n(C[C@H](O)C(F)(F)F)c3=O)nn2-c2ccccc2Cl)C1` (mixture of isomers) [Example 29, 5-(4-Chlorophenyl)-2-({1-(2-chlorophenyl)-5-[3-hydroxy-3-methylpyrrolidin-1-yl]-1H-1,2,4-triazol-3-yl}methyl)-4-[(2S)-3,3,3-trifluoro-2-hydroxypropyl]-2,4-dihydro-3H-1,2,4-triazol-3-one], the IC50 (human V2 receptor) was 4.9 nM, the IC50 (human V1a receptor) was 1.05 nM and the “ratio IC50 hV2/hV1a” value (human V1a receptor) was 4.7.
In the case of `NC(=O)C1CN(c2nc(Cn3nc(-c4ccc(Cl)cc4)n(C[C@H](O)C(F)(F)F)c3=O)nn2-c2ccccc2Cl)CCN1` (mixture of isomers) [Example 33, 4-[1-(2-Chlorophenyl)-3-({3-(4-chlorophenyl)-5-oxo-4-[(2S)-3,3,3-trifluoro-2-hydroxypropyl]-4,5-dihydro-1H-1,2,4-triazol-1-yl}methyl)-1H-1,2,4-triazol-5-yl]piperazine-2-carboxamide], the IC50 (human V2 receptor) is reported as 9.25 nM, the IC50 (human V1a receptor) is reported as 0.37 nM and the “ratio IC50 hV2/hV1a” value (human V1a receptor) is reported as 25.2.
`O=CN1CCC(Nc2nc(Cn3nc(-c4ccc(Cl)cc4)n(C[C@H](O)C(F)(F)F)c3=O)nn2-c2ccccc2Cl)C1` (mixture of isomers) [Example 41, 3-{[1-(2-Chlorophenyl)-3-({3-(4-chlorophenyl)-5-oxo-4-[(2S)-3,3,3-trifluoro-2-hydroxypropyl]-4,5-dihydro-1H-1,2,4-triazol-1-yl}methyl)-1H-1,2,4-triazol-5-yl]amino}pyrrolidine-1-carbaldehyde] was tested, and the IC50 (human V2 receptor) was 7.4 nM, the IC50 (human V1a receptor) was 0.93 nM and the “ratio IC50 hV2/hV1a” value (human V1a receptor) was 8.0.
In the case of `COC1CCN(c2nc(Cn3nc(-c4ccc(Cl)cc4)n(C[C@H](O)C(F)(F)F)c3=O)nn2-c2ccccc2Cl)C1` (mixture of isomers) [Example 42, 5-(4-Chlorophenyl)-2-({1-(2-chlorophenyl)-5-[3-methoxypyrrolidin-1-yl]-1H-1,2,4-triazol-3-yl}methyl)-4-[(2S)-3,3,3-trifluoro-2-hydroxypropyl]-2,4-dihydro-3H-1,2,4-triazol-3-one], the IC50 (human V2 receptor) is reported as 1.9 nM, the IC50 (human V1a receptor) is reported as 0.48 nM and the “ratio IC50 hV2/hV1a” value (human V1a receptor) is reported as 4.0.
With `O=c1n(Cc2nc(N3CCC(O)C3)n(-c3ccccc3Cl)n2)nc(-c2ccc(Cl)cc2)n1C[C@H](O)C(F)(F)F` (mixture of isomers) [Example 43, 5-(4-Chlorophenyl)-2-({1-(2-chlorophenyl)-5-[3-hydroxypyrrolidin-1-yl]-1H-1,2,4-triazol-3-yl}methyl)-4-[(2S)-3,3,3-trifluoro-2-hydroxypropyl]-2,4-dihydro-3H-1,2,4-triazol-3-one] the IC50 (human V2 receptor) was 4.4 nM, the IC50 (human V1a receptor) was 0.42 nM and the “ratio IC50 hV2/hV1a” value (human V1a receptor) was 10.5.
With `O=c1n(Cc2nc(NCC(O)C(F)(F)F)n(-c3ccccc3Cl)n2)nc(-c2ccc(Cl)cc2)n1C[C@H](O)C(F)(F)F` (mixture of isomers) [Example 53, 5-(4-Chlorophenyl)-2-{[1-(2-chlorophenyl)-5-{[3,3,3-trifluoro-2-hydroxypropyl]amino}-1H-1,2,4-triazol-3-yl]methyl}-4-[(2S)-3,3,3-trifluoro-2-hydroxypropyl]-2,4-dihydro-3H-1,2,4-triazol-3-one] the IC50 (human V2 receptor) was 1.85 nM, the IC50 (human V1a receptor) was 0.52 nM and the “ratio IC50 hV2/hV1a” value (human V1a receptor) was 3.6.
